The source of these data is PMC10038264, “A new family of glutamate-gated chloride channels in parasitic sea louse Caligus rogercresseyi: A subunit refractory to activation by ivermectin is dominant in heteromeric assemblies” (PLOS Pathogens, 2023).

The test system of assay [1] is DmGluClα. Also noted: method as in PMID 7935817, PMID 8702744, PMID 25994631. The note with it: read-out: EC50 glutamate; cited from earlier work.
The test system of assay [2] is CrGluCl-B Q327T mutant. The experiment in a line: Voltage-clamp of oocytes expressing CrGluCl-B Q327T mutant. It is filed as cell-based, Caligus rogercresseyi. The settings on record: 1 μM ivermectin, ANOVA P<0.05. An excerpt: To identify putative GluCl subunits, we queried the NCBI Transcriptome Shotgun Assembly Sequence (TSA) Database for “glutamate-gated chloride channel Caligus”. The obtained sequences were translated and BLASTed (tBLASTn) against the C. rogercresseyi genome (WGS, BioProject ID 280098, NCBI) and against transcripts of L. salmonis database (https://licebase.org/). Primers for each of the putative new subunit found were designed to span the full length of the open reading frame (ORF) for each of them (B-E) (S1 Table, and arrows in Fig 1). Complete cDNAs were generated by RT-PCR from adult C. rogercresseyi samples from which putative full-length peptide sequences of CrGluCl-B, CrGluCl-C, CrGluCl-D and CrGluCl-E were obtained. Each PCR product was cloned in pGEM-T easy vector and sequenced. […]
Current measurements at controlled membrane potentials (voltage-clamp experiments) were performed using two intracellular microelectrodes in defolliculated Xenopus oocytes previously microinjected with 20 ng of cRNA. […] The oocytes were recorded in a chamber (Model RC-1Z, Warner Instrumenst, USA) under continuous superfusion. […] Currents were recorded continuously during the experiments without interruptions for solution changes. […] The signal filtered at 1 kHz was acquired with a Digidata 1440A Analog-to-Digital Converter and analyzed with Axon pClamp 10.6 software. […]

`N[C@@H](CCC(=O)O)C(=O)O` [glutamate, L-glutamate]: the concentration giving a half-maximal response (EC50) – broadly, the midpoint of the concentration-response curve – in assay [1] is 23 µM. As for ivermectin, in assay [2], the “effect of ivermectin on current compared with WT” value is given as “significantly greater”.
